Measured values from article PMC5218480 (PLoS ONE, 2017).

Tested on: MV-4-11 cells
Experiment: Gene expression microarray analysis (Affymetrix PrimeView) and GSEA
Assay type: cell-based, human
Design: RFU PODN (11730768_x_at) / Fold change /veh PODN (11730768_x_at) / RFU LINC00158 (11744669_a_at) / Fold change /veh LINC00158 (11744669_a_at) / RFU DUSP10 (11751237_a_at) / Fold change /veh DUSP10 (11751237_a_at) / RFU ID3 (11757404_x_at) / Fold change /veh ID3 (11757404_x_at) / RFU PLEKHG5 (11737974_s_at) / Fold change /veh PLEKHG5 (11737974_s_at) / RFU LRRC4B (11730491_at) / Fold change /veh LRRC4B (11730491_at) / RFU GIMAP4 (11747438_a_at) / Fold change /veh GIMAP4 (11747438_a_at) / RFU KRT8 (11758183_x_at) / Fold change /veh KRT8 (11758183_x_at) / RFU CNN1 (11734310_a_at) / Fold change /veh CNN1 (11734310_a_at) / RFU VPS37D (11726825_at) / Fold change /veh VPS37D (11726825_at) / RFU C10orf10 (11716522_x_at) / Fold change /veh C10orf10 (11716522_x_at) / RFU KIR2DL2 /// KIR2DL4 /// KIR2DL5A /// KIR2DL5B /// KIR2DS1 /// KIR2DS2 /// KIR2DS3 /// KIR2DS4 /// KIR3DL3 /// KIR3DL3 /// KIR3DS1 (11738374_at) / Fold change /veh KIR2DL2 /// KIR2DL4 /// KIR2DL5A /// KIR2DL5B /// KIR2DS1 /// KIR2DS2 /// KIR2DS3 /// KIR2DS4 /// KIR3DL3 /// KIR3DL3 /// KIR3DS1 (11738374_at) / RFU C1QL1 (11718748_at) / Fold change /veh C1QL1 (11718748_at) / RFU TMPRSS4 (11747572_a_at) / Fold change /veh TMPRSS4 (11747572_a_at) / RFU HAMP (11756126_x_at) / Fold change /veh HAMP (11756126_x_at) / RFU RNFT2 (11725882_a_at) / Fold change /veh RNFT2 (11725882_a_at) / RFU NR4A2 (11747474_a_at) / Fold change /veh NR4A2 (11747474_a_at) / RFU ABCC12 (11746883_a_at) / Fold change /veh ABCC12 (11746883_a_at) / RFU TMEM136 (11760407_x_at) / Fold change /veh TMEM136 (11760407_x_at) / RFU CLDN22 /// WWC2 (11732394_at) / Fold change /veh CLDN22 /// WWC2 (11732394_at) / RFU HLA-DPB1 (11760878_x_at) / Fold change /veh HLA-DPB1 (11760878_x_at) / RFU SPINT1 (11716480_a_at) / Fold change /veh SPINT1 (11716480_a_at) / RFU GAP43 (11754022_s_at) / Fold change /veh GAP43 (11754022_s_at) / RFU A4GNT (11735810_at) / Fold change /veh A4GNT (11735810_at) / RFU PRB3 (11715151_x_at) / Fold change /veh PRB3 (11715151_x_at) / RFU TUBB4B (11761932_at) / Fold change /veh TUBB4B (11761932_at) / RFU CAPN14 (11732068_a_at) / Fold change /veh CAPN14 (11732068_a_at) / RFU TMCC2 (11721928_a_at) / Fold change /veh TMCC2 (11721928_a_at) / RFU IRGQ (11745062_a_at) / Fold change /veh IRGQ (11745062_a_at) / RFU FAM174B (11720279_a_at) / Fold change /veh FAM174B (11720279_a_at) / RFU TMPRSS4 (11748680_a_at) / Fold change /veh TMPRSS4 (11748680_a_at) / RFU FAM212B (11763350_a_at) / Fold change /veh FAM212B (11763350_a_at) / RFU PLEKHG5 (11743358_a_at) / Fold change /veh PLEKHG5 (11743358_a_at) / RFU ZSCAN30 (11745921_a_at) / Fold change /veh ZSCAN30 (11745921_a_at) / RFU CMKLR1 (11741424_a_at) / Fold change /veh CMKLR1 (11741424_a_at) / RFU LOC101060620 /// MAPK8IP1 (11723275_at) / Fold change /veh LOC101060620 /// MAPK8IP1 (11723275_at) / RFU SPTSSB (11747773_x_at) / Fold change /veh SPTSSB (11747773_x_at) / RFU PRSS12 (11739890_at) / Fold change /veh PRSS12 (11739890_at) / RFU BIN1 (11741810_x_at) / Fold change /veh BIN1 (11741810_x_at) / RFU WNT11 (11732464_a_at) / Fold change /veh WNT11 (11732464_a_at) / RFU C10orf10 (11716521_a_at) / Fold change /veh C10orf10 (11716521_a_at) / RFU C5orf56 (11738089_at) / Fold change /veh C5orf56 (11738089_at) / RFU CYB561 (11721691_x_at) / Fold change /veh CYB561 (11721691_x_at) / RFU ANKRD19P (11752326_a_at) / Fold change /veh ANKRD19P (11752326_a_at) / RFU OR2T12 /// OR2T33 /// OR2T8 (11738714_s_at) / Fold change /veh OR2T12 /// OR2T33 /// OR2T8 (11738714_s_at) / RFU VCAN (11748164_a_at) / Fold change /veh VCAN (11748164_a_at) / RFU JSRP1 (11732532_at) / Fold change /veh JSRP1 (11732532_at) / RFU KRTAP10-11 (11738290_x_at) / Fold change /veh KRTAP10-11 (11738290_x_at) / RFU MYO3A (11730013_a_at) / Fold change /veh MYO3A (11730013_a_at) / RFU EBF3 (11725865_a_at) / Fold change /veh EBF3 (11725865_a_at) / RFU CAMK2N1 (11719241_x_at) / Fold change /veh CAMK2N1 (11719241_x_at) / RFU C5orf56 (11738088_a_at) / Fold change /veh C5orf56 (11738088_a_at) / RFU OLFML3 (11715873_a_at) / Fold change /veh OLFML3 (11715873_a_at) / RFU LOC100653217 /// NTM (11731650_a_at) / Fold change /veh LOC100653217 /// NTM (11731650_a_at) / RFU MAPK11 (11762145_a_at) / Fold change /veh MAPK11 (11762145_a_at) / RFU FIZ1 (11724087_x_at) / Fold change /veh FIZ1 (11724087_x_at) / RFU OASL (11726364_x_at) / Fold change /veh OASL (11726364_x_at) / RFU SOX15 (11748057_x_at) / Fold change /veh SOX15 (11748057_x_at) / RFU CD79A (11719716_a_at) / Fold change /veh CD79A (11719716_a_at) / RFU HIST1H1D (11736915_at) / Fold change /veh HIST1H1D (11736915_at) / RFU CASKIN2 (11723855_a_at) / Fold change /veh CASKIN2 (11723855_a_at) / RFU LOC730098 (11760151_x_at) / Fold change /veh LOC730098 (11760151_x_at) / RFU OR4N2 (11742367_at) / Fold change /veh OR4N2 (11742367_at) / RFU PRRT2 (11749266_a_at) / Fold change /veh PRRT2 (11749266_a_at) / RFU SNX32 (11753110_a_at) / Fold change /veh SNX32 (11753110_a_at) / RFU CDHR5 (11726645_a_at) / Fold change /veh CDHR5 (11726645_a_at) / RFU RCAN1 (11760418_a_at) / Fold change /veh RCAN1 (11760418_a_at) / RFU FAM167A (11723789_a_at) / Fold change /veh FAM167A (11723789_a_at) / RFU FAM26E (11764081_at) / Fold change /veh FAM26E (11764081_at) / RFU ISYNA1 (11749810_s_at) / Fold change /veh ISYNA1 (11749810_s_at) / RFU ACY1 (11761880_at) / Fold change /veh ACY1 (11761880_at) / RFU 11764098_at / Fold change /veh 11764098_at / RFU SAMD14 (11745864_x_at) / Fold change /veh SAMD14 (11745864_x_at) / RFU NPB (11741838_a_at) / Fold change /veh NPB (11741838_a_at) / RFU TMPRSS6 (11731388_a_at) / Fold change /veh TMPRSS6 (11731388_a_at) / RFU KRTAP10-2 (11738614_at) / Fold change /veh KRTAP10-2 (11738614_at) / RFU ARHGAP8 /// PRR5-ARHGAP8 (11727945_x_at) / Fold change /veh ARHGAP8 /// PRR5-ARHGAP8 (11727945_x_at) / RFU KRTAP5-7 /// NADSYN1 (11734609_at) / Fold change /veh KRTAP5-7 /// NADSYN1 (11734609_at) / RFU RASL12 (11751679_a_at) / Fold change /veh RASL12 (11751679_a_at) / RFU CDKN2B (11736163_a_at) / Fold change /veh CDKN2B (11736163_a_at) / RFU PRF1 (11729649_at) / Fold change /veh PRF1 (11729649_at) / RFU, ZNF638 /// ZNF638-IT1 / Fold change vs veh, ZNF638 /// ZNF638-IT1 / RFU, PANK3 / Fold change vs veh, PANK3 / RFU, SH3YL1 / Fold change vs veh, SH3YL1 / RFU, ZEB2 / Fold change vs veh, ZEB2 / RFU, NRIP1 / Fold change vs veh, NRIP1 / RFU, PTTG1IP / Fold change vs veh, PTTG1IP / RFU, CAPN2 / Fold change vs veh, CAPN2 / RFU, MED14 / Fold change vs veh, MED14 / RFU, SNORA58 / Fold change vs veh, SNORA58 / RFU, C1orf63 / Fold change vs veh, C1orf63 / RFU, LRRFIP1 / Fold change vs veh, LRRFIP1 / RFU, NDUFAF7 / Fold change vs veh, NDUFAF7 / RFU, SLC12A2 / Fold change vs veh, SLC12A2 / RFU, IBTK / Fold change vs veh, IBTK / RFU, ESF1 / Fold change vs veh, ESF1 / Fold change vs veh, TMEM50B / RFU, TAOK1 / Fold change vs veh, TAOK1 / RFU, ACBD3 / Fold change vs veh, ACBD3 / RFU, TMA16 / Fold change vs veh, TMA16 / RFU, RWDD3 / Fold change vs veh, RWDD3 / RFU, BCAT1 / Fold change vs veh, BCAT1 / RFU, EDEM3 / Fold change vs veh, EDEM3 / RFU, TMEM33 / Fold change vs veh, TMEM33 / RFU, WDR75 / Fold change vs veh, WDR75 / RFU, AHCTF1 / Fold change vs veh, AHCTF1 / RFU, TFRC / Fold change vs veh, TFRC / RFU, ZDHHC17 / Fold change vs veh, ZDHHC17 / RFU, NOM1 / Fold change vs veh, NOM1 / RFU, ARL8B / Fold change vs veh, ARL8B / RFU, ZBTB11 / Fold change vs veh, ZBTB11 / RFU, TAMM41 / Fold change vs veh, TAMM41 / RFU, KIAA1704 /// LOC100996395 / Fold change vs veh, KIAA1704 /// LOC100996395 / RFU, ING1 / Fold change vs veh, ING1 / RFU, TRMT61B / Fold change vs veh, TRMT61B / RFU, FUBP3 / Fold change vs veh, FUBP3 / RFU, TP53 / Fold change vs veh, TP53 / RFU, TNKS2 / Fold change vs veh, TNKS2 / RFU, ZFP14 / Fold change vs veh, ZFP14 / RFU, ACTR2 / Fold change vs veh, ACTR2 / RFU, PPP3R1 / Fold change vs veh, PPP3R1 / RFU, PIK3R1 / Fold change vs veh, PIK3R1 / RFU, HNRNPA1 / Fold change vs veh, HNRNPA1 / RFU, RNF170 / Fold change vs veh, RNF170 / RFU, ZNF28 / Fold change vs veh, ZNF28 / RFU, RNGTT / Fold change vs veh, RNGTT / RFU, OGT / Fold change vs veh, OGT / RFU, BRD1 / Fold change vs veh, BRD1 / RFU, MARS / Fold change vs veh, MARS / RFU, ZNF655 / Fold change vs veh, ZNF655 / RFU, FAHD1 / Fold change vs veh, FAHD1 / RFU, BDP1 / Fold change vs veh, BDP1 / RFU, LRRCC1 / Fold change vs veh, LRRCC1 / RFU, ARID1A / Fold change vs veh, ARID1A / RFU, ZNF146 / Fold change vs veh, ZNF146 / RFU, ZNF330 / Fold change vs veh, ZNF330 / RFU, GPN3 / Fold change vs veh, GPN3 / RFU, C9orf123 / Fold change vs veh, C9orf123 / RFU, N4BP2L2 / Fold change vs veh, N4BP2L2 / RFU, ARFIP1 / Fold change vs veh, ARFIP1 / RFU, FAM179B / Fold change vs veh, FAM179B / RFU, BCL10 / Fold change vs veh, BCL10 / RFU, UHRF1BP1L / Fold change vs veh, UHRF1BP1L / RFU, BET1 / Fold change vs veh, BET1 / RFU, CNOT2 / Fold change vs veh, CNOT2 / RFU, ZNF268 / Fold change vs veh, ZNF268 / Fold change vs veh, ZNF507 / RFU, DGCR2 / Fold change vs veh, DGCR2 / RFU, WDSUB1 / Fold change vs veh, WDSUB1 / Fold change vs veh, HSP90B1 /// MIR3652 / RFU, ADSS / Fold change vs veh, ADSS / RFU, GK / Fold change vs veh, GK / RFU, ZNF148 / Fold change vs veh, ZNF148 / RFU, TAF9 / Fold change vs veh, TAF9 / RFU, SLC1A5 / Fold change vs veh, SLC1A5 / RFU, SLMO2 / Fold change vs veh, SLMO2 / RFU, ABCC4 / Fold change vs veh, ABCC4 / RFU, LOC101060439 /// RAP1B / Fold change vs veh, LOC101060439 /// RAP1B / RFU, RFX7 / Fold change vs veh, RFX7 / RFU, GTPBP10 / Fold change vs veh, GTPBP10 / RFU, CNEP1R1 / Fold change vs veh, CNEP1R1 / RFU, BIVM-ERCC5 /// ERCC5 / Fold change vs veh, BIVM-ERCC5 /// ERCC5 / RFU, ILF3 / Fold change vs veh, ILF3 / RFU 11762660_at / Fold change /veh 11762660_at / RFU VCAN (11757783_s_at) / Fold change /veh VCAN (11757783_s_at) / RFU DDX43 (11728927_at) / Fold change /veh DDX43 (11728927_at) / RFU KRT8 (11758188_x_at) / Fold change /veh KRT8 (11758188_x_at) / RFU NKD1 (11759106_at) / Fold change /veh NKD1 (11759106_at) / RFU SRD5A1 (11742802_a_at) / Fold change /veh SRD5A1 (11742802_a_at) / RFU TPSAB1 /// TPSB2 (11721975_s_at) / Fold change /veh TPSAB1 /// TPSB2 (11721975_s_at) / RFU GSTM3 (11746129_a_at) / Fold change /veh GSTM3 (11746129_a_at) / RFU IL23R (11737362_x_at) / Fold change /veh IL23R (11737362_x_at) / RFU TMEM51 (11727254_a_at) / Fold change /veh TMEM51 (11727254_a_at) / RFU PIWIL2 (11732686_x_at) / Fold change /veh PIWIL2 (11732686_x_at) / RFU ORM1 (11744905_x_at) / Fold change /veh ORM1 (11744905_x_at) / RFU CCDC152 (11743942_at) / Fold change /veh CCDC152 (11743942_at) / RFU ECM1 (11717891_a_at) / Fold change /veh ECM1 (11717891_a_at) / RFU IL23R (11748794_a_at) / Fold change /veh IL23R (11748794_a_at) / RFU TNFAIP8L3 (11732012_x_at) / Fold change /veh TNFAIP8L3 (11732012_x_at) / RFU MBOAT4 (11741988_at) / Fold change /veh MBOAT4 (11741988_at) / RFU 11764193_at / Fold change /veh 11764193_at / RFU TMEM53 (11763286_at) / Fold change /veh TMEM53 (11763286_at) / RFU MAGEB2 (11727129_at) / Fold change /veh MAGEB2 (11727129_at) / RFU TMEM200A (11744735_a_at) / Fold change /veh TMEM200A (11744735_a_at) / RFU CCDC152 (11751479_a_at) / Fold change /veh CCDC152 (11751479_a_at) / RFU FAM211A (11726209_a_at) / Fold change /veh FAM211A (11726209_a_at) / RFU RGS16 (11746705_a_at) / Fold change /veh RGS16 (11746705_a_at) / RFU VCAN (11755009_s_at) / Fold change /veh VCAN (11755009_s_at) / RFU RHOB (11743442_s_at) / Fold change /veh RHOB (11743442_s_at) / RFU RGS16 (11720943_a_at) / Fold change /veh RGS16 (11720943_a_at) / RFU RGS16 (11720944_at) / Fold change /veh RGS16 (11720944_at) / RFU, VPS4B / Fold change vs veh, VPS4B / RFU, CREB1 / Fold change vs veh, CREB1 / RFU, DNAJC13 / Fold change vs veh, DNAJC13 / RFU, GNAQ / Fold change vs veh, GNAQ / RFU, CDK5R1 / Fold change vs veh, CDK5R1 / RFU, ZRANB3 / Fold change vs veh, ZRANB3 / RFU, CUL4A / Fold change vs veh, CUL4A / RFU, CCNY / Fold change vs veh, CCNY / RFU, UFL1 / Fold change vs veh, UFL1 / RFU, COG3 / Fold change vs veh, COG3 / RFU, DIAPH2 / Fold change vs veh, DIAPH2 / RFU, SKA2 / Fold change vs veh, SKA2 / RFU, AFF3 / Fold change vs veh, AFF3 / RFU, LMF1 / Fold change vs veh, LMF1 / RFU, IPO11 / Fold change vs veh, IPO11 / RFU, DFFB / Fold change vs veh, DFFB / RFU, FOXP1 / Fold change vs veh, FOXP1 / RFU, CARD8 / Fold change vs veh, CARD8 / RFU, STRN3 / Fold change vs veh, STRN3 / RFU, ADK / Fold change vs veh, ADK / RFU, RASSF2 / Fold change vs veh, RASSF2 / RFU, WIPF1 / Fold change vs veh, WIPF1 / RFU, LARP1B / Fold change vs veh, LARP1B / RFU, RASA1 / Fold change vs veh, RASA1 / RFU, RB1 / Fold change vs veh, RB1 / RFU, PPFIA1 / Fold change vs veh, PPFIA1 / RFU, MAT2A / Fold change vs veh, MAT2A / RFU, CCT5 / Fold change vs veh, CCT5 / RFU, WDR92 / Fold change vs veh, WDR92 / RFU, CUX1 / Fold change vs veh, CUX1 / RFU, TTC7A / Fold change vs veh, TTC7A / RFU, TMEM135 / Fold change vs veh, TMEM135 / RFU, DEPTOR / Fold change vs veh, DEPTOR / RFU, CPM / Fold change vs veh, CPM / RFU, DNAJB6 / Fold change vs veh, DNAJB6 / RFU, CACNA2D3 / Fold change vs veh, CACNA2D3 / RFU, DTX4 / Fold change vs veh, DTX4 / RFU, TFCP2 / Fold change vs veh, TFCP2 / RFU, GMCL1 /// GMCL1P1 / Fold change vs veh, GMCL1 /// GMCL1P1 / RFU, AEBP2 / Fold change vs veh, AEBP2 / RFU, SNHG1 /// SNORD22 /// SNORD25 /// SNORD26 /// SNORD27 /// SNORD28 /// SNORD29 /// SNORD31 / Fold change vs veh, SNHG1 /// SNORD22 /// SNORD25 /// SNORD26 /// SNORD27 /// SNORD28 /// SNORD29 /// SNORD31 / Fold change (Aza/veh), C12orf56 (ProbeSet 11735607_a_at) / Fold change (ACY-1035/veh), C12orf56 (ProbeSet 11735607_a_at) / Fold change (Aza/veh), FGFR1OP (ProbeSet 11751329_s_at) / Fold change (ACY-1035/veh), FGFR1OP (ProbeSet 11751329_s_at) / Fold change (Aza/veh), VPS36 (ProbeSet 11739960_a_at) / Fold change (ACY-1035/veh), VPS36 (ProbeSet 11739960_a_at) / RFU SYPL1 (11715823_x_at) / Fold change /veh SYPL1 (11715823_x_at) / RFU IGFBP7 (11715501_s_at) / Fold change /veh IGFBP7 (11715501_s_at) / RFU REEP3 (11722064_at) / Fold change /veh REEP3 (11722064_at) / RFU IGLL1 (11728026_x_at) / Fold change /veh IGLL1 (11728026_x_at): dose or concentration left out as unconfirmed
Settings: ProbeSet 11740781_a_at; LIST B

## Nc1ncn([C@@H]2O[C@H](CO)[C@@H](O)[C@H]2O)c(=O)n1 [azacitidine]
  RFU, ILF3: 260.31 RFU
